Our source for the inhibition values is publication PMC6934184, “Selective DNA-PKcs inhibition extends the therapeutic index of localized radiotherapy and chemotherapy” (The Journal of Clinical Investigation, 2019).

The assay concerns the target T1, TAOK2 (TAO1) (Homo sapiens, UniProt Q9UL54).
T1 construct: purchased Thermo Fisher Scientific (Life Technologies) SelectScreen
The experiment in a line: SelectScreen Z'LYTE. In kind it is biochemical. The essentials:
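NU5455 was profiled across the SelectScreen Broad panel of kinase activity and binding assays. Z'LYTE reactions such as CSF1R ran at apparent Km ATP, while the Adapta CAMK1 assay used ATP listed as 10. Values are given as percent.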

T1 sequence (Q9UL54 whole entry): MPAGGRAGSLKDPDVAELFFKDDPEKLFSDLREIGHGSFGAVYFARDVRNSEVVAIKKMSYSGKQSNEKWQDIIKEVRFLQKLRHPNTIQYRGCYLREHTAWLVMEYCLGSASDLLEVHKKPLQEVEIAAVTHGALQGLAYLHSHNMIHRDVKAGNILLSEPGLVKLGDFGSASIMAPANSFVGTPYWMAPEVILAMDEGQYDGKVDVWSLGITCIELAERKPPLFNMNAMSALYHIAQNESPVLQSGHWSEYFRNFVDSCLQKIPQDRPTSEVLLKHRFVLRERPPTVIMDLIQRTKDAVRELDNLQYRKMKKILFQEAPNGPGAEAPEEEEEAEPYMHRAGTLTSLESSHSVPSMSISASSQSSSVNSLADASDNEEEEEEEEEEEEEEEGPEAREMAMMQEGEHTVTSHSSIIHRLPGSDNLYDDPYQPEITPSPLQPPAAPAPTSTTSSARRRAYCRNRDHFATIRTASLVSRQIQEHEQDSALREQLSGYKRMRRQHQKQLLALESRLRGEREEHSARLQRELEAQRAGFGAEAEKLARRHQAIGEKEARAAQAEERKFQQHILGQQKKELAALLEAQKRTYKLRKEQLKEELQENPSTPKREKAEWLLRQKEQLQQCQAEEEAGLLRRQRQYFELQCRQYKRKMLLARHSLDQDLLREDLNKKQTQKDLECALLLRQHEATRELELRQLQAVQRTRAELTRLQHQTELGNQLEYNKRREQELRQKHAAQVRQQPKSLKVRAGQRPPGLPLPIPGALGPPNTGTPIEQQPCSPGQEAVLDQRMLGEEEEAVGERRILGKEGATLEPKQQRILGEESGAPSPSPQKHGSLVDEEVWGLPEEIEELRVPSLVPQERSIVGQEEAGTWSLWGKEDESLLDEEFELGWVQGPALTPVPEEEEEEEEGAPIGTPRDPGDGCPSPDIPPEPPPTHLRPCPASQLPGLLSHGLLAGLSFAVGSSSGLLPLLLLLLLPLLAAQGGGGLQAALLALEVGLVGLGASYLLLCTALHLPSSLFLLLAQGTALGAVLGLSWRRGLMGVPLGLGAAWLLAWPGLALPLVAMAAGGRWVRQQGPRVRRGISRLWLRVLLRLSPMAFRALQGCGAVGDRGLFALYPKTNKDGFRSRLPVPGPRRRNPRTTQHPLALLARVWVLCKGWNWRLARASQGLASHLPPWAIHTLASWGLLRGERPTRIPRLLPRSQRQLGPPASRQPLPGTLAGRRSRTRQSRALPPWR

`CN(C(=O)CN1CCOCC1)c1ccc2sc3c(-c4cccc5c(=O)cc(N6CC7CCC(C6)O7)oc45)cccc3c2c1` [NU5455]: the inhibition at 1 µM was -5.1%.
